{"source": "patent US12371453B2", "about": "“Polypeptide having antibacterial activity, composition for preventing or treating sepsis comprising same, and antibacterial composition” (priority 2019, dated 2025)", "key": {"[1]": {"tested_on": "Carbapenem resistant (CR)-Acinetobactor baumannii", "experiment": "organism not typed", "procedure": "(§1) The antibacterial activity was evaluated according to an antibacterial activity test method for measuring the minimum inhibitory concentration 50 (MIC50; the minimal concentration that kills 50% of bacteria).\n(§2) More specifically, 100 μL of a medium was dispensed into each well of a 96-well plate, and in the first column, an antibiotic and a peptide in 200 μL of the medium were dispensed. 1/2 serial dilution was performed from columns 1 to 11 and five types of antibiotic-resistant bacteria (ESBL-resistant E. coli, carbapenem-resistant A. baumannii, carbapenem-resistant Klebsiella pneumoniae, carbapenem-resistant Pseudomonas aeruginosa, colistin-resistant Acinetobactor baumannii), which had been previously cultured, were diluted (OD600 nm value in dilution: approximately 0.0025) and dispensed into each well. The plate was incubated in a 37° C. incubator for 4 hours, and measured at OD600 nm."}, "[2]": {"tested_on": "ESBL (E. coli)", "conditions": "ESBL", "procedure": "as §1, §2"}, "[3]": {"tested_on": "CR-Klebsiella pneumoniae", "conditions": "CR-", "procedure": "as §1, §2"}, "[4]": {"tested_on": "Colistin resistant AB (Acinetobactor baumannii)", "procedure": "as §1, §2"}, "[5]": {"experiment": "In vivo toxicity, survival rate (Example 9)", "design": "species or system ICR mice", "conditions": "mouse, ip, mice, intraperitoneal six times, survival for 72 hours", "procedure": "To confirm the therapeutic and pharmaceutical effects of an acetate salt substitution of allD FP13-NH2, a septic animal model induced by intraperitoneally administering each of the Escherichia coli (standard strain and ESBL) strains or a normal mouse was treated with the peptide allD FP13-NH2 (AcOH). The antibiotic effect, the toxicity, and the inhibitory activity of […] cytokine IL-6 of the salt substitution with those of the same peptide at the end of trifluoroacetic acid (TFA) were compared.\nSix-week-old female ICR mice (SPF mice, Samtako) with an average body weight of 25 g were used as experimental animals. The experimental animals were provided with sterile feed and water and bred with less than 10 mice per cage, and a day/night cycle was 12 hours.\nTo evaluate in vivo toxicity, the mice were divided into groups (n=5 or 6 per group) per experiment, and intraperitoneally treated six times with allD FP13-NH2 (TFA) and allD FP13-NH2 (AcOH) mixed with […]'S DEX solution (vehicle) at 0, 1, 2, 3, 4, or 5 hours, followed by observing a survival rate at intervals of 12 hours for 72 hours."}}, "note": "Square brackets hold non-standard residues; d marks the D form. Peptide text beside a SMILES is read from it."}
{"smiles": "CC(C)C[C@@H](NC(=O)[C@H](N)CCCCN)C(=O)N[C@H](CCCNC(=N)N)C(=O)N[C@@H](C(=O)N[C@H](CCCCN)C(=O)N[C@H](CC(C)C)C(=O)N[C@H](CCCNC(=N)N)C(=O)N[C@H](CCCNC(=N)N)C(=O)N[C@H](Cc1ccc(O)cc1)C(=O)N[C@H](CC(C)C)C(=O)N[C@H](CCCNC(=N)N)C(N)=O)C(C)C", "note": "[allD FP13-NH2 (AcOH)] (H-[dK][dL][dR][dV][dK][dL][dR][dR][dY][dL][dR]-NH2; N-terminus assumed)", "values": [{"measurement": "MIC50, Carbapenem resistant (CR)-Acinetobactor baumannii", "setting": "[1]", "value": "<1", "unit": "µg/mL"}, {"measurement": "MIC50, ESBL (E. coli)", "setting": "[2]", "value": "<1", "unit": "µg/mL"}, {"measurement": "MIC50, CR-Klebsiella pneumoniae", "setting": "[3]", "value": "<32", "unit": "µg/mL"}, {"measurement": "MIC50, Colistin resistant AB", "setting": "[4]", "value": "<16", "unit": "µg/mL"}, {"measurement": "LD50", "setting": "[5]", "value": 80, "unit": "mg/kg"}]}
